Data set [1] has as its target acetylcholinesterase (AChE) (Electrophorus electricus, UniProt O42275). Nature of the data set: Inhibition of electric eel AchE at 100 uM using acetylthiocholine as substrate by Ellman's method relative to control. The conditions noted are these: electric eel AChE enzyme, probe acetylthiocholine. Background: In Ellman's method for cholinesterases, released thiocholine reacts with DTNB.

The target in data set [2] is Cholinesterase (Homo sapiens, UniProt P06276). Nature of the data set: Inhibition of human BuchE.
Data set [3] is described as follows: Cytotoxicity against human SH-SY5Y cells by MTT assay. The format is cell-based. A general note: Tetrazolium assays rely on reduction of a dye to a coloured formazan, in cell work by metabolically active cells.
In data set [4] the target is Acetylcholinesterase (Electrophorus electricus, UniProt O42275). Kind of data set: Inhibition of electric eel AchE using acetylthiocholine as substrate by Ellman's method.
Data set [5] has as its target Cholinesterase (Equus caballus, UniProt P81908).
Description: Inhibition of equine BuchE using butyrylthiocholine as substrate by Ellman's method
The nature of data set [6]: Selectivity index, ratio of IC50 for equine BuchE using butyrylthiocholine as substrate by Ellman's method to IC50 for human BuchE.
In data set [7] the target is Acetylcholinesterase (Homo sapiens, UniProt P22303). Kind of data set: Inhibition of human AchE.
Data set [8] has as its target acetylcholinesterase (AChE) (Homo sapiens, UniProt P22303). Nature of the data set: Inhibition of human AchE at 100 uM relative to control. The conditions noted are these: human AChE enzyme.

The structures appear in SMILES notation. Bounds are passed on as bounds.

acetylcholinesterase (AChE) (Electrophorus electricus, UniProt O42275), sequence (O42275 whole entry): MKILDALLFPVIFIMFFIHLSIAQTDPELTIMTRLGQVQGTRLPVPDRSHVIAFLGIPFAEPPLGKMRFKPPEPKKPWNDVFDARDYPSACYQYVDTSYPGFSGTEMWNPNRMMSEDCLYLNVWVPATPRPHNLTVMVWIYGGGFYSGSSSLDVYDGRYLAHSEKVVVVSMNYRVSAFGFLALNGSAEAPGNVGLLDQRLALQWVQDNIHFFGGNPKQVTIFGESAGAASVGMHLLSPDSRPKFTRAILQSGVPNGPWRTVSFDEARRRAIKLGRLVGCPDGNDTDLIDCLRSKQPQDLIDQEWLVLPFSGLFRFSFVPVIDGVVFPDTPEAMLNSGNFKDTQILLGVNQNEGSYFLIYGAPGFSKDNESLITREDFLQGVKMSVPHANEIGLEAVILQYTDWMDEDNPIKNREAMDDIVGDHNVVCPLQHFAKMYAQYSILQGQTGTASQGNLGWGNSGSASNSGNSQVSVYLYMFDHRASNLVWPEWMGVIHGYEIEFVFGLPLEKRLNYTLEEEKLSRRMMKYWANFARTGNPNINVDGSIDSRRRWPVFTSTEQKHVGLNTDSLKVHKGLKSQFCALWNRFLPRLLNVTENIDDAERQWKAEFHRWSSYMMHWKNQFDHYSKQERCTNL
Acetylcholinesterase (Electrophorus electricus, UniProt O42275), sequence (O42275 whole entry): as above
Cholinesterase (Equus caballus, UniProt P81908), sequence (P81908 whole entry): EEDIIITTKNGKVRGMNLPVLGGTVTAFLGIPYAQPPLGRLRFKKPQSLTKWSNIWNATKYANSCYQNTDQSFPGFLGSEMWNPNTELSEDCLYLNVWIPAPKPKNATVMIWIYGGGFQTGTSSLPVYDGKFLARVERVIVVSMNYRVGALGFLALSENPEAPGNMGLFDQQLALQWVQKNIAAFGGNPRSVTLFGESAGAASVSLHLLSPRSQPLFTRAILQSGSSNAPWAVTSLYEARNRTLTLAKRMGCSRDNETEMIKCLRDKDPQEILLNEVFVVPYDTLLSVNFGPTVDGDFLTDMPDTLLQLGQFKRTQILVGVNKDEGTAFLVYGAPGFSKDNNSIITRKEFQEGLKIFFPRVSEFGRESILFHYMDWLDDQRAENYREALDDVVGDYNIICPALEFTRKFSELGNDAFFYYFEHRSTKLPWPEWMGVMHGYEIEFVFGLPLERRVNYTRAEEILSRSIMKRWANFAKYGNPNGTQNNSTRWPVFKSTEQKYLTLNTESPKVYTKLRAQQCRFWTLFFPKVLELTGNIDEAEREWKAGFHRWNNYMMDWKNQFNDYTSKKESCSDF
Cholinesterase (Homo sapiens, UniProt P06276), sequence (P06276 whole entry): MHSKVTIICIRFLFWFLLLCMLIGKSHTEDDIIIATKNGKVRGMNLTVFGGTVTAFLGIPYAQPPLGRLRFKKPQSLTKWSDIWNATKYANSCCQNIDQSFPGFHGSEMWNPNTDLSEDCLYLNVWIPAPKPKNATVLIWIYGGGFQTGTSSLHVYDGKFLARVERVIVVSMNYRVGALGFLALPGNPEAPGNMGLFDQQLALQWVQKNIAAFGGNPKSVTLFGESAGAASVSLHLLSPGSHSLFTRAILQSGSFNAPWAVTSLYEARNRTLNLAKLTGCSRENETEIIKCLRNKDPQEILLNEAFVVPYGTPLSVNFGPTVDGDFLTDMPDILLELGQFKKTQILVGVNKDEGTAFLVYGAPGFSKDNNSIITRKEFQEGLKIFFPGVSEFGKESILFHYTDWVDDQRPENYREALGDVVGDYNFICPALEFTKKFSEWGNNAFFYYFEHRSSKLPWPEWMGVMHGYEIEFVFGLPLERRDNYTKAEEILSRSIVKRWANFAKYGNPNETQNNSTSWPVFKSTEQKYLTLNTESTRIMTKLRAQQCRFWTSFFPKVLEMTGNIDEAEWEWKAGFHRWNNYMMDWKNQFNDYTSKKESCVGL
Acetylcholinesterase (Homo sapiens, UniProt P22303), sequence (P22303 whole entry): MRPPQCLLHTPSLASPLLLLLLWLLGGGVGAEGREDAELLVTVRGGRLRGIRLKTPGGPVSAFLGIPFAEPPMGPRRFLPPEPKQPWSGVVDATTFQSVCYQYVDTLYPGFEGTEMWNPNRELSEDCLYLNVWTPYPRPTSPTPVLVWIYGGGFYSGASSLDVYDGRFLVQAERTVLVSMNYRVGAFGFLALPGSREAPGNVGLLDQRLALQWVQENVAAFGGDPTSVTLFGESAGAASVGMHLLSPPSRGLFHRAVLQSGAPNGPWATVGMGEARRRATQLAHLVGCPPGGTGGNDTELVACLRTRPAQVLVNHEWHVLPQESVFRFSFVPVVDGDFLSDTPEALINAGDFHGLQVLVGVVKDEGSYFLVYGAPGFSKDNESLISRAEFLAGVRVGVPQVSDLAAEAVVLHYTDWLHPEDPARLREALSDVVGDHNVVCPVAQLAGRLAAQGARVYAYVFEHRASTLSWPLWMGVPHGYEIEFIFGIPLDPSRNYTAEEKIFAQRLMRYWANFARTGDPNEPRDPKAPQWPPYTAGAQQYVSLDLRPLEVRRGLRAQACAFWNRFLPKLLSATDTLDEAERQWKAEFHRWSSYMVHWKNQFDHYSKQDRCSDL
acetylcholinesterase (AChE) (Homo sapiens, UniProt P22303), sequence (P22303 whole entry): as above

With `COc1cc(C2C3=C(CCCC3=O)NC3=C2C(=O)CCC3)ccc1OCc1ccc(F)cc1`, the inhibition (usually how much of the control response was suppressed) at 100 µM in data set [1] stood at 27%. Moreover, the IC50 (usually the midpoint of a concentration-inhibition curve) at Cholinesterase [2] is 98 nM; at Acetylcholinesterase [4], over 100000 nM; against Cholinesterase [5] it was 242 nM; at Acetylcholinesterase [7], 125000 nM. Further, in data set [3], the CC50 – broadly, the concentration that lowers cell viability or growth by half – was at least 100000 nM. Also, in data set [6], the Ratio IC50 was determined as 2.5.
As for `CN1C2=C(C(=O)CCC2)C(c2ccc(OCc3ccc(Cl)cc3)c(Cl)c2)C2=C1CCCC2=O`, at 100 µM the inhibition in data set [1] was 23%. In addition, the IC50 at Acetylcholinesterase [4] was over 100000 nM; at Cholinesterase [5], 1660 nM.
With `CCOc1cc(C2C3=C(CCCC3=O)NC3=C2C(=O)CCC3)ccc1OCc1ccccc1`, 100 µM produced 19% inhibition in data set [1]. Moreover, the IC50 on Acetylcholinesterase [4] is over 100000 nM; against Cholinesterase [5], 752 nM.
`O=C1CCCC2=C1C(c1ccc(OCc3cccc(F)c3)c(Br)c1)C1=C(CCCC1=O)N2`: the inhibition at 100 µM came to 22% in data set [1] and 39% in data set [8]. The IC50 at Cholinesterase [2] was 142 nM; on Acetylcholinesterase [4] it was over 100000 nM; at Cholinesterase [5], 388 nM; against Acetylcholinesterase [7], over 100000 nM. For the same compound, the Ratio IC50 in data set [6] turned out to be 2.5.
With `O=C1CCCC2=C1C(c1ccc(OCc3ccccc3)c(Br)c1)C1=C(CCCC1=O)N2`, the inhibition at 100 µM in data set [1] is 14%. Besides, the IC50 against Acetylcholinesterase [4] was over 100000 nM; at Cholinesterase [5], 633 nM.
On the same counts, the results for `O=C1CCCC2=C1C(c1ccc(OCc3ccccc3)cc1)C1=C(CCCC1=O)N2` are 24%, over 100000 nM and 6010 nM.
Taken in the same sequence, the figures for `COc1cc(C2C3=C(CCCC3=O)NC3=C2C(=O)CCC3)ccc1OS(=O)(=O)c1ccc(C)cc1` were 15%, over 100000 nM and 959 nM.
`COc1cc(C2C3=C(CCCC3=O)N(C)C3=C2C(=O)CCC3)ccc1OCc1ccc(F)cc1` came in with an inhibition at 100 µM in data set [1] of 33%. The IC50 on Acetylcholinesterase [4] is over 100000 nM; on Cholinesterase [5], 2440 nM.

The values above are taken from ChEMBL document CHEMBL4627331 (Bioorg Med Chem Lett, 2020).
